Experimental data: US9610319B2, “Method of treating cancer” (Research Foundation of the City University of New York, priority 2014, dated 2017)
Bridge positions count the residues as written; N and C are the ends. Ends that are not written are not given here.

Experiments:
[1] = system: Nereis virens (polychaete worms); assay: Bioactivity assay on polychaete worms; format: in vivo
Description: To determine if synthetic Tv1 is biologically active, the peptide was injected into polychaete worms, which are the natural prey of terebrid snails. […] Inhibition of nicotinic receptors at the neuromuscular junction can result in paralysis.
Nereis virens (polychaete worms) (less than 3.5 g) were maintained at 4° C. in salt water prior to injection. Worms were laid on a Styrofoam block and injected with an insulin syringe. A modified needle cap was used to maintain a consistent 1.5 mm depth of needle puncture. Worms were injected between the 5th and 7th segments on the ventral anterior end with the aim of targeting the ventral nerve cord. Control worms were injected with 12 μl of 0.9% normal saline solution (NSS). Lyopholized samples of Tv1 toxin were resuspended in NSS and diluted to a concentration of 20 μM which was confirmed using a ThermoScientific Nanodrop 2000c spectrophotometer. At least three worms were used for each trial—one saline control and two injected with Tv1 toxin for a total of three trials. After injection, the worms were transferred to side-by-side containers filled with room temperature salt water. The worm movements were then recorded by video in order to evaluate the effects of the toxin over a period of at least 3.5 hours. Varying temperature elicits different phenotypic responses from N. virens: water at 4° C. has an anesthetizing effect, while room temperature prompts a vigorous response. Taking the worms from 4° C. water and immersing them in room temperature water (25° C.) immediately after injection stimulates an active response from the worms, making it easier to recognize paralytic (or partially paralytic) effects induced by a novel toxin in the first minutes after injection. Worms were observed every other day for two weeks after injection. […] Each video was analyzed and annotated […] by each observer. Observations for each worm began at the time of injection. The numerical results of the two independent viewings were averaged together if results were similar, if two viewers disagreed, a third observer was employed to review the disputed section of video. Results of relative activity vs. time were plotted to quantify the phenotypic effects of the toxin and saline injection on N. virens.

[2] = system: cell lines IMEA7 and BNL.CL2; assay: In vitro cell viability, immunoblotting and wound healing assays on liver cancer cells; format: cell-based
Description: A novel teretoxin, Tv1 (TR(I/L)[…] (SEQ ID NO: 1)) from a terebrid snail, terebrid variegata was structurally identified and found to be biologically active. […] Tv1 was analyzed in cell viability, immunoblotting, and wound healing assays to characterize its function on liver cancer cells. […] Structural characterization of Terebra variegata peptide toxin Tv1 was accomplished using a total venom sample of 4 ng, an amount that would previously make characterization of venom components almost impossible.

[3] = system: BNL.1MEA.7.R.1 cells; assay: Mouse tumor study: BNL.1MEA.7.R.1 cells injected into right leg, intraperitoneal Tv1; format: in vivo, Balb/c female mice
Description: Balb/c female mice (20-35 g) were used for mouse studies. Animals were maintained on standard animal diet, in a controlled room (22±1° C. @ 35-50% RH) for a week prior to experiments. Animals were randomly divided into three groups: negative control (only PBS), high-dose and low-dose ZCD groups. Each group had five mice under sterile condition. On the day nine, the BNL.1MEA.7.R.1 cells (5 million) were injected into the right leg of each animal and allowed the tumors to grow. After two weeks the animals were checked for tumor growth and the sizes of tumors were recorded using calipers. The treatment was started after finding tumors in all groups.
The concentration of the Tv1 formulations was prepared at 0.08 mg/kg body weight (low dose) and 0.80 mg/kg body weight (high dose) for the intraperitoneal injections. Control group of animals received PBS. The drug administrations were continued for seven days and then further after a five day interval treatment was continued for another eight days and tumor sizes were measured every day.
In the high-dose group, the tumor volumes were 286.08±39.9 mm^3 at the beginning of the treatment and were 434.28±286 mm^3 after the last day which is an increase of only 52%.

| Substance | phenotypic effect of injection into worms ([1]; injections of 20 μM) | selectivity tumor cell versus normal cells in vitro ([2]; cell lines IMEA7 and BNL.CL2) | death of normal versus cancer cells compared to sorafenib and doxorubicin ([2]; cell viability, immunoblotting, wound healing assays) | % Time spent, activity at 0 ([1]; 20 μM injected, activity at 0) [%] | % Time spent, activity between 0 and 1 ([1]; 20 μM injected, activity between 0 and 1) [%] | % Time spent, activity between 1 and 2 ([1]; 20 μM injected, activity between 1 and 2) [%] | % Time spent, activity between 2 and 3 ([1]; 20 μM injected, activity between 2 and 3) [%] | effect on growth of tumor ([3]; both low and high doses) | tumor volume after the last day ([3]; high dose 0.80 mg/kg body weight, intraperitoneal, after the last day) [mm^3] | tumor volume at the beginning of the treatment ([3]; high dose 0.80 mg/kg body weight, intraperitoneal, beginning of treatment) [mm^3] | increase of tumor volume ([3]; high dose 0.80 mg/kg, beginning to last day (negative control 418%)) [%] | average tumor volume at the beginning of the treatment ([3]; low dose 0.08 mg/kg body weight, intraperitoneal, day one) [mm^3] | average tumor volume at the end of treatment ([3]; low dose 0.08 mg/kg body weight, intraperitoneal, end of treatment) [mm^3] | increase of average tumor volume ([3]; low dose 0.08 mg/kg, day one to end of treatment (negative control 418%)) [%] | selectivity tumor cell versus normal cells in vivo ([3]; mice models expressing IMEA7 tumor cells subcutaneously) | body weights throughout the treatment period ([3]; monitored throughout treatment) |
| --- | --- | --- | --- | --- | --- | --- | --- | --- | --- | --- | --- | --- | --- | --- | --- | --- |
| TRICCGCYWNGSKDVCSQSCC (disulfide 7-16, 4-20, 5-21; listed as Terebra variegata) [Tv1 (Ile), Tv1 peptide with Ile at the third position] | partial paralysis | – | – | – | – | – | – | – | – | – | – | – | – | – | – | – |
| TR(I/L)CCGCYWNGSKDVCSQSCC [Tv1, novel teretoxin from terebrid snail Terebra variegata, chemically synthesized; Ile or Leu at position 3] | – | selectively targets tumor cell versus normal cells | prevented the death of normal versus cancer cells at high instance | 0.995 | 74.47 | 19.98 | 4.55 | effective in significantly decreasing the growth of tumor | 434.28±286 | 286.08±39.9 | 52 | 180±36.74 | 485±175.07 | 170 | selectively targets tumor cell versus normal cells | not significantly changed |
